Patent publication US20160046618A1, “Cyclopropyl Fused Thiazin-2-Amine Compounds as Beta-Secretase Inhibitors and Methods of Use” (AMGEN INC., priority 2014, published 2016)
Read-outs that look alike come from different tables or passages of the source.

Tests used:
human recombinant BACE2 = human recombinant BACE2 (Homo sapiens (Human), UniProt Q9Y5Z0); assay: In vitro enzymatic BACE2 FRET assay; type: biochemical; details: read-out: IC50 IP (μM) BACE2 enzyme
Method in brief: (§1)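 Reactions were initiated by adding 50 nM of a peptide carrying fluorophore and quencher on opposite sides of the cleavage site and ran for one hour. Tris buffer then brought the pH to neutrality, ending the reaction, and fluorescence was measured (488 nm excitation, 590 nm emission).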

[1] = test system: Aβ40 in conditioned medium of cells stably expressing Amyloid Precursor Protein (APP); assay: In vitro BACE-1 cell-based assay (Aβ40 sandwich ELISA); details: read-out: IC50 IP (μM) BACE1 cell
Method in brief: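 Aβ40 in supernatants measured by time-resolved fluorescence sandwich ELISA, with pAb40 as capture and biotin-6E10 as detector antibody, each incubated at 4 °C.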

Recombinant Cat D = Recombinant Cat D (Homo sapiens (Human), UniProt P07339); assay: In vitro enzymatic Cathepsin D (Cat D) FRET assay; type: biochemical; details: read-out: IC50 IP (μM) CatD
Chain of Recombinant Cat D (P07339 65-412): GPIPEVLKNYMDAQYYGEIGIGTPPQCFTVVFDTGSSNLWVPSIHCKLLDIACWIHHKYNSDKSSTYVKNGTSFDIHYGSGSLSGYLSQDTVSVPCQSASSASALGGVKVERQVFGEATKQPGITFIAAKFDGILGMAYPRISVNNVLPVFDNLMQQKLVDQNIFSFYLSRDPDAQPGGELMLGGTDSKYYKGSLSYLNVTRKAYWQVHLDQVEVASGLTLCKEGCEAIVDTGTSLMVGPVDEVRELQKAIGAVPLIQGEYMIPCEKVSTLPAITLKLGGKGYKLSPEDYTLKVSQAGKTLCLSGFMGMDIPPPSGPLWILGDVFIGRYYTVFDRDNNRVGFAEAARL
Method in brief: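 Cleavage of a 20 nM FRET peptide by CHO-derived Cat D over 1 h at pH 3.5 (citrate buffer with CHAPS, 10% DMSO final). Endpoint fluorescence is read after Tris quench.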

human recombinant BACE1 = human recombinant BACE1 (Homo sapiens (Human), UniProt P56817); assay: In vitro enzymatic BACE1 FRET assay; type: biochemical; details: read-out: IC50 IP (μM) BACE1 enzyme
Chain of human recombinant BACE1 (P56817 46-501): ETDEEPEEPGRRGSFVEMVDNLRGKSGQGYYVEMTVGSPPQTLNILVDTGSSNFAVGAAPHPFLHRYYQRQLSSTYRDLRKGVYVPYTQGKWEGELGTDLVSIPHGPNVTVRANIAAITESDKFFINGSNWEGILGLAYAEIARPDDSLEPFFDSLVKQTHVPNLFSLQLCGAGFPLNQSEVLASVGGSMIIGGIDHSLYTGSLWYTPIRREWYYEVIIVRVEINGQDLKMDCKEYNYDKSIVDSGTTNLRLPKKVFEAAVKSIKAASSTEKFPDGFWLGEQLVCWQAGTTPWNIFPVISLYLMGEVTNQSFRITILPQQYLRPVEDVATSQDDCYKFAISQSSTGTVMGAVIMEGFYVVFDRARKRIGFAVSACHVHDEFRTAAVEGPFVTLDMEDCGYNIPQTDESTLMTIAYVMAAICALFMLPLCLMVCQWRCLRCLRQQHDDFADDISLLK
Method in brief: as §1

Chain of human recombinant BACE2 (Q9Y5Z0 63-518): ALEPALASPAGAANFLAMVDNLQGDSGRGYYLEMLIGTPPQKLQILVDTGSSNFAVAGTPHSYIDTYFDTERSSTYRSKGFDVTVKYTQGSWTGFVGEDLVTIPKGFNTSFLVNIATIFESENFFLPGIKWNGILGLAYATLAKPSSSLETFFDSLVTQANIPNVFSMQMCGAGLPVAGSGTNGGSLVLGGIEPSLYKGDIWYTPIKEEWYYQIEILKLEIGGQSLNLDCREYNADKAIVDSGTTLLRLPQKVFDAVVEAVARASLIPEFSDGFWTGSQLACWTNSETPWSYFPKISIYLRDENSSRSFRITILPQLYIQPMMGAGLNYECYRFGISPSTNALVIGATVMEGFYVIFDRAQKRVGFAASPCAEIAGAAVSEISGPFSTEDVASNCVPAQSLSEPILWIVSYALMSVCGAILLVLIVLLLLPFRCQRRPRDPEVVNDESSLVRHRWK

Row | IC50 (human recombinant BACE2) [µM] | IC50 [1] [µM] | IC50 (Recombinant Cat D) [µM] | IC50 (human recombinant BACE1) [µM] | IC50 (human recombinant BACE2; BACE2 FRET enzyme assay) [µM] | IC50 ([1]; BACE1 cell-based assay) [µM] | IC50 (Recombinant Cat D; Cathepsin D FRET enzyme assay) [µM] | IC50 (human recombinant BACE1; BACE1 FRET enzyme assay) [µM] | SMILES
1 | 0.00602 | 0.000398 | 101 | 0.000389 | – | – | – | – | C#CCOc1cnc(C(=O)Nc2ccc(F)c([C@@]3(C)N=C(N)S[C@@]4([C@H](O)C(F)(F)F)C[C@H]43)c2)cn1 [Example 673, N-(3-((1S,5S,6S)-3-amino-5-methyl-1-((1R)-2,2,2-trifluoro-1-hydroxyethyl)-2-thia-4-azabicyclo[4.1.0]hept-3-en-5-yl)-4-fluorophenyl)-5-(2-propyn-1-yloxy)-2-pyrazinecarboxamide]
2 | 0.00332 | 0.0239 | > 400 | 0.0072 | – | – | – | – | COC[C@]12C[C@H]1[C@@](CF)(c1cc(Nc3nccc4cc(C#N)cnc34)ccc1F)N=C(N)S2 [Example 717, 8-((3-((1S,5S,6S)-3-amino-5-(fluoromethyl)-1-(methoxymethyl)-2-thia-4-azabicyclo[4.1.0]hept-3-en-5-yl)-4-fluorophenyl)amino)-1,7-naphthyridine-3-carbonitrile]
3 | 0.0195 | 0.000648 | > 400 | 0.000344 | – | – | – | – | C#C[C@H](C)Oc1cnc(C(=O)Nc2ccc(F)c([C@@]3(C)N=C(N)S[C@@]4(C(=O)NC)C[C@H]43)c2)cn1 [Example 978, (1S,5S,6S)-3-amino-5-(5-(5-((S)-but-3-yn-2-yloxy)pyrazine-2-carboxamido)-2-fluorophenyl)-N,5-dimethyl-2-thia-4-azabicyclo[4.1.0]hept-3-ene-1-carboxamide]
4 | < 0.00203 | 0.00265 | 779 | 0.000415 | – | – | – | – | CNC(=O)/C=C/[C@]12C[C@H]1[C@@](CF)(c1cc(NC(=O)c3ccc(Cl)cn3)ccc1F)N=C(N)S2 [Example 760, N-(3-((1R,5S,6S)-3-amino-5-(fluoromethyl)-1-((E)-3-(methylamino)-3-oxoprop-1-en-1-yl)-2-thia-4-azabicyclo[4.1.0]hept-3-en-5-yl)-4-fluorophenyl)-5-chloropicolinamide]
5 | 0.0494 | 0.0111 | > 400 | 0.0282 | – | – | – | – | COC[C@]12C[C@H]1[C@@](C)(c1cc(Nc3ncnc4cc(C#N)cnc34)cnc1F)N=C(N)S2 [Example 846, 4-((5-((1S,5S,6S)-3-amino-1-(methoxymethyl)-5-methyl-2-thia-4-azabicyclo[4.1.0]hept-3-en-5-yl)-6-fluoro-3-pyridinyl)amino)pyrido[3,2-d]pyrimidine-7-carbonitrile]
6 | 0.0102 | 0.00413 | 381 | 0.00747 | – | – | – | – | C[C@H](O)[C@]12C[C@H]1[C@@](C)(c1cc(Nc3ncnc4cc(C#N)cnc34)cc(F)c1F)N=C(N)S2 [Example 907, 4-((3-((1S,5S,6S)-3-amino-1-(1-hydroxyethyl)-5-methyl-2-thia-4-azabicyclo[4.1.0]hept-3-en-5-yl)-4,5-difluorophenyl)amino)pyrido[3,2-d]pyrimidine-7-carbonitrile]
7 | 0.466 | 0.0194 | > 400 | 0.00344 | – | – | – | – | C[C@]1(c2cc(NC(=O)c3ccc(OCC(F)(F)C(F)F)cn3)cnc2F)N=C(N)S[C@@]2(CF)C[C@H]21 [Example 609, N-(5-((1S,5S,6S)-3-amino-1-(fluoromethyl)-5-methyl-2-thia-4-azabicyclo[4.1.0]hept-3-en-5-yl)-6-fluoro-3-pyridinyl)-5-(2,2,3,3-tetrafluoropropoxy)-2-pyridinecarboxamide]
8 | 0.657 | 0.249 | 116 | 0.071 | – | – | – | – | C#CCOc1cnc2c(Nc3cc(C(=O)OC)c(F)c([C@@]4(C)N=C(N)S[C@@]5(C(=O)OC)C[C@H]54)c3)nccc2n1 [Example 856, (1S,5S,6S)-methyl 3-amino-5-(2-fluoro-3-(methoxycarbonyl)-5-((2-(prop-2-yn-1-yloxy)pyrido[3,4-b]pyrazin-5-yl)amino)phenyl)-5-methyl-2-thia-4-azabicyclo[4.1.0]hept-3-ene-1-carboxylate]
9 | < 0.00203 | 0.00152 | 364 | 0.000794 | – | – | – | – | CN(C)C(=O)/C=C/[C@]12C[C@H]1[C@@](CF)(c1cc(NC(=O)c3ccc(Cl)cn3)ccc1F)N=C(N)S2 [Example 761, N-(3-((1R,5S,6S)-3-amino-1-((E)-3-(dimethylamino)-3-oxoprop-1-en-1-yl)-5-(fluoromethyl)-2-thia-4-azabicyclo[4.1.0]hept-3-en-5-yl)-4-fluorophenyl)-5-chloropicolinamide]
10 | 0.193 | 0.00597 | > 400 | 0.00178 | – | – | – | – | C[C@]1(c2cc(NC(=O)c3cnc(OCC(F)(F)C(F)F)cn3)cnc2F)N=C(N)S[C@@]2(CF)C[C@H]21 [Example 610, N-(5-((1S,5S,6S)-3-amino-1-(fluoromethyl)-5-methyl-2-thia-4-azabicyclo[4.1.0]hept-3-en-5-yl)-6-fluoro-3-pyridinyl)-5-(2,2,3,3-tetrafluoropropoxy)-2-pyrazinecarboxamide]
11 | – | – | – | – | 0.0206 | 0.0501 | 715 | 0.00763 | Cc1cc(OC(F)F)cnc1C(=O)Nc1cc(F)c(F)c([C@@]2(CF)N=C(N)S[C@H]3C[C@H]32)c1 [Example 86, N-(3-((1S,5S,6S)-3-amino-5-(fluoromethyl)-2-thia-4-azabicyclo[4.1.0]hept-3-en-5-yl)-4,5-difluorophenyl)-5-(difluoromethoxy)-3-methyl-2-pyridinecarboxamide]
12 | 0.00522 | 0.00356 | 880 | 0.000628 | – | – | – | – | C[C@]1(c2cc(NC(=O)c3cnc(OCc4ncco4)cn3)cc(F)c2F)N=C(N)S[C@@]2(S(C)(=O)=O)C[C@H]21 [Example 746, N-(3-((1R,5S,6S)-3-amino-5-methyl-1-(methylsulfonyl)-2-thia-4-azabicyclo[4.1.0]hept-3-en-5-yl)-4,5-difluorophenyl)-5-(1,3-oxazol-2-ylmethoxy)-2-pyrazinecarboxamide]
13 | – | – | – | – | 0.00286 | 0.00505 | > 133 | 0.00225 | N#Cc1cnc2c(Nc3ccc(F)c([C@@]4(CF)N=C(N)S[C@@]5(CO)C[C@H]54)c3)nccc2c1 [Example 50, 8-((3-((1S,5S,6S)-3-amino-5-(fluoromethyl)-1-(hydroxymethyl)-2-thia-4-azabicyclo[4.1.0]hept-3-en-5-yl)-4-fluorophenyl)amino)-1,7-naphthyridine-3-carbonitrile]
14 | 0.143 | 0.00823 | 592 | 0.00223 | – | – | – | – | COC[C@]12C[C@H]1[C@@](C)(c1cc(Nc3nccc4nc(OCc5noc(C)n5)cnc34)cc(F)c1F)N=C(N)S2 [Example 885, N-(3-((1S,5S,6S)-3-amino-1-(methoxymethyl)-5-methyl-2-thia-4-azabicyclo[4.1.0]hept-3-en-5-yl)-4,5-difluorophenyl)-2-((5-methyl-1,2,4-oxadiazol-3-yl)methoxy)pyrido[3,4-b]pyrazin-5-amine]
15 | 0.00612 | 0.00113 | 406 | 0.00119 | – | – | – | – | C#CCOc1cnc2c(Nc3ccc(F)c([C@@]4(CF)N=C(N)S[C@@]5(/C=C/C(=O)N(C)C)C[C@H]54)c3)nccc2n1 [Example 768, (2E)-3-((1R,5S,6S)-3-amino-5-(fluoromethyl)-5-(2-fluoro-5-((2-(2-propyn-1-yloxy)pyrido[3,4-b]pyrazin-5-yl)amino)phenyl)-2-thia-4-azabicyclo[4.1.0]hept-3-en-1-yl)-N,N-dimethyl-2-propenamide]
16 | 0.233 | 0.00697 | 1970 | 0.0033 | – | – | – | – | C[C@]1(c2cc(Nc3ncnc4cc(OCc5ncco5)cnc34)cnc2F)N=C(N)S[C@@]2([C@@H](O)C(F)(F)F)C[C@H]21 [Example 668, (1S)-1-((1S,5S,6S)-3-amino-5-(2-fluoro-5-((7-(1,3-oxazol-2-ylmethoxy)pyrido[3,2-d]pyrimidin-4-yl)amino)-3-pyridinyl)-5-methyl-2-thia-4-azabicyclo[4.1.0]hept-3-en-1-yl)-2,2,2-trifluoroethanol]
17 | 0.101 | 0.0755 | 340 | 0.00361 | – | – | – | – | Cc1nc(OCC(F)(F)F)cnc1C(=O)Nc1cc(F)c(F)c([C@@]2(C)N=C(N)S[C@@]3(CF)C[C@H]32)c1 [Example 614, N-(3-((1S,5S,6S)-3-amino-1-(fluoromethyl)-5-methyl-2-thia-4-azabicyclo[4.1.0]hept-3-en-5-yl)-4,5-difluorophenyl)-3-methyl-5-(2,2,2-trifluoroethoxy)-2-pyrazinecarboxamide]
18 | 3.86 | 1.66 | 518 | 0.149 | – | – | – | – | C[C@]1(c2cc(Nc3nccc4nc(OCCN5CCCC5=O)cnc34)cc(F)c2F)N=C(N)S[C@@]2(C(F)F)C[C@@H]12 [Example 893, 1-(2-((5-((3-((1S,5S,6S)-3-amino-1-(difluoromethyl)-5-methyl-2-thia-4-azabicyclo[4.1.0]hept-3-en-5-yl)-4,5-difluorophenyl)amino)pyrido[3,4-b]pyrazin-2-yl)oxy)ethyl)-2-pyrrolidinone]
